Counter-ions that a name gives are not always drawn.
Assay: collision cross section in nitrogen (drift tube, single-field); higher = larger gas-phase ion size
[1] = ion type: [M+H], ion source: APCI, ion mode: Positive
[2] = ion type: [M+H], ion source: ESI, ion mode: Positive
[3] = ion type: [M+], ion source: APCI, ion mode: Positive
[4] = ion type: [M+Na], ion source: ESI, ion mode: Positive
[5] = ion type: [M-H], ion source: ESI, ion mode: Negative
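Also: chemical standards at 10 µM analysed by drift tube IMS-QTOF MS in about 3.95 torr nitrogen, mean of duplicate injections differing ≤1%, mass error below 10 ppm.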

Compound | collision cross section in nitrogen [1] | collision cross section in nitrogen [2] | collision cross section in nitrogen [4] | collision cross section in nitrogen [5] | collision cross section in nitrogen [3]
c1ccc(Nc2ccc3ccccc3c2)cc1 [N-Phenyl-2-naphthylamine] | 150 Å² | 151.3 Å² |  |  | 149.2 Å²
CCCCCCCCC(=O)NCc1ccc(O)c(OC)c1 [N-Vanillylnonanamide] |  |  | 178 Å² |  | 
CCCCCCCCCCCC(=O)NCCCN(C)C [N-[3-(Dimethylamino)propyl]dodecanamide] | 185.5 Å² | 185.2 Å² | 181.8 Å² |  | 
CNC(=O)C(c1ccccc1)c1ccccc1 [N-methyl-alpha-phenylbenzeneacetamide] | 153.4 Å² | 152.9 Å² | 162.2 Å² |  | 
CCN(CC)C(=O)C(C)Oc1cccc2ccccc12 (centres undefined) [Napropamide] | 163.8 Å² | 164.2 Å² | 172 Å² |  | 
O=C(O)c1ccccc1C(=O)Nc1cccc2ccccc12 [Naptalam] |  |  | 170.9 Å² | 168.6 Å² | 
Cc1cccc(C)c1NC(=O)CN1CCCC1=O [Nefiracetam] |  |  | 167.3 Å² |  | 
CC(C)(COCC1CO1)COCC1CO1 (centres undefined) [Neopentyl glycol diglycidyl ether] |  |  | 148.2 Å² |  | 
NC(=O)c1cccnc1 [Niacinamide] | 125.7 Å² |  |  |  | 
COC(=O)C1=C(C)NC(C)=C(C(=O)OCCN(C)Cc2ccccc2)C1c1cccc([N+](=O)[O-])c1 (centres undefined) [Nicardipine hydrochloride] | 213 Å² | 212.6 Å² | 211.2 Å² | 214.2 Å² | 208.8 Å²
COc1cc(OC)nc(NC(=O)NS(=O)(=O)c2ncccc2C(=O)N(C)C)n1 [Nicosulfuron] |  |  | 196.2 Å² |  | 
CN1CCC[C@H]1c1cccnc1 [Nicotine sulfate (2:1)] | 137 Å² | 137.7 Å² |  |  | 
O=C(O)c1cccnc1 [Nicotinic acid] |  | 124.2 Å² |  |  | 
OCc1cccnc1 [Nicotinyl alcohol] | 119.2 Å² | 119.8 Å² |  |  | 
CC1(C)NC(=O)N(c2ccc([N+](=O)[O-])c(C(F)(F)F)c2)C1=O [Nilutamide] |  |  |  | 162.8 Å² | 
O=[N+]([O-])c1ccc([As](=O)(O)O)cc1 [Nitarsone] |  | 144.4 Å² |  | 138.9 Å² | 
CCCN(CCC)c1c([N+](=O)[O-])cc(S(C)(=O)=O)cc1[N+](=O)[O-] [Nitralin] |  |  |  | 177 Å² | 
O=[N+]([O-])O [Nitric acid, calcium salt (2:1)] |  |  |  | 104.5 Å² | 
CNC(=C[N+](=O)[O-])NCCSCc1csc(CN(C)C)n1 [Nizatidine] | 171.3 Å² | 171 Å² | 178.1 Å² | 181.9 Å² | 
CNc1cnn(-c2cccc(C(F)(F)F)c2)c(=O)c1Cl [Norflurazon] | 162.7 Å² | 162.4 Å² | 171.9 Å² | 160.9 Å² | 
O=C(NC(=O)c1c(F)cccc1F)Nc1ccc(OC(F)(F)C(F)OC(F)(F)F)c(Cl)c1 (centres undefined) [Novaluron] |  |  |  | 204.4 Å² | 
OC(c1ccc(F)cc1)(c1cncnc1)c1ccccc1Cl (centres undefined) [Nuarimol] | 171.6 Å² | 171.2 Å² |  | 170.7 Å² | 

Compound | collision cross section in nitrogen [1] | collision cross section in nitrogen [2] | collision cross section in nitrogen [4] | collision cross section in nitrogen [5] | collision cross section in nitrogen [3]
CCOP(=S)(S)OCC [O,O′-Diethyl hydrogen dithiophosphate] |  |  |  | 135 Å² | 
CCCCCCCCCCCCCCCCCC(=O)O [Octadecanoic acid] |  |  |  | 177.2 Å² | 
CCCCCCCCOC(=O)c1ccccc1C(=O)O [Octyl hydrogen phthalate] |  |  | 181.5 Å² | 168 Å² | 
CCCCCCCCP(=O)(O)O [Octylphosphonic acid] |  |  |  | 149.9 Å² | 
CCCCCCCC/C=C\CCCCCCCC(=O)O [Oleic acid] |  |  |  | 176.3 Å² | 
CCCCCCCC/C=C\CCCCCCCC(=O)N(C)CC(=O)O [Oleyl sarcosine] | 200.7 Å² | 200.6 Å² | 196 Å² | 191.2 Å² | 
CCCCCc1cc(O)cc(O)c1 [Olivetol] |  |  |  | 148.5 Å² | 
CNC(=O)CSP(=O)(OC)OC [Omethoate] | 137.1 Å² |  | 145.9 Å² |  | 
CCCN(CCC)c1c([N+](=O)[O-])cc(S(N)(=O)=O)cc1[N+](=O)[O-] [Oryzalin] |  |  |  | 177.3 Å² | 
CC(C)Oc1cc(-n2nc(C(C)(C)C)oc2=O)c(Cl)cc1Cl [Oxadiazon] |  |  |  | 177.1 Å² | 
COCC(=O)N(c1c(C)cccc1C)N1CCOC1=O [Oxadixyl] |  |  | 167.1 Å² |  | 
CNC(=O)ON=C(SC)C(=O)N(C)C [Oxamyl] |  |  | 150.9 Å² |  | 
O=C1Nc2ccc(Cl)cc2C(c2ccccc2)=NC1O (centres undefined) [Oxazepam] | 163.5 Å² | 163.7 Å² | 180 Å² | 162.7 Å² | 
CCn1cc(C(=O)O)c(=O)c2cc3c(cc21)OCO3 [Oxolinic acid] | 152.6 Å² | 152.3 Å² | 165 Å² |  | 
CC1=C(C(=O)Nc2ccccc2)S(=O)(=O)CCO1 [Oxycarboxin] |  |  | 168.9 Å² |  | 
CCOc1cc(Oc2ccc(C(F)(F)F)cc2Cl)ccc1[N+](=O)[O-] [Oxyfluorfen] |  |  |  | 172.1 Å² | 
O=c1[nH]c(=O)c2c[nH]nc2[nH]1 [Oxypurinol] |  |  |  | 122.3 Å² | 
CN(C)[C@@H]1C(O)=C(C(N)=O)C(=O)[C@@]2(O)C(O)=C3C(=O)c4c(O)cccc4[C@@](C)(O)[C@H]3[C@H](O)[C@@H]12 [Oxytetracycline hydrochloride] | 199.9 Å² | 197.8 Å² | 207.7 Å² | 198.4 Å² | 
OC(c1ccc(Cl)cc1)(c1ccc(Cl)cc1)c1cccnc1 [Parinol] | 183.7 Å² | 183.1 Å² |  | 177.2 Å² | 
CCCC(Cn1cncn1)c1ccc(Cl)cc1Cl (centres undefined) [Penconazole] | 166.3 Å² | 166.1 Å² |  |  | 
O=C(Nc1ccccc1)N(Cc1ccc(Cl)cc1)C1CCCC1 [Pencycuron] | 180.7 Å² | 180.5 Å² | 192.8 Å² | 185.7 Å² | 

More lines, main results first:

collision cross section in nitrogen [1] | collision cross section in nitrogen [2] | collision cross section in nitrogen [4] | collision cross section in nitrogen [5] | Compound | collision cross section in nitrogen [3]
147.5 Å² | 147.8 Å² | 161.1 Å² |  | CCn1cc(C(=O)O)c(=O)c2ccc(C)nc21 [Nalidixic acid] | 
231.8 Å² | 230.6 Å² | 233.3 Å² | 233.1 Å² | COc1ccc(S(=O)(=O)N2C(=O)[C@@](c3ccccc3OC)(N3C[C@H](O)C[C@H]3C(=O)N(C)C)c3cc(Cl)ccc32)c(OC)c1 [Nelivaptan] | 
 |  |  | 145.2 Å² | CCC(C)(CCC(C)C)C(=O)O (centres undefined) [Neodecanoic acid] | 
 |  | 180.7 Å² |  | CC(C)(COC(=O)c1ccccc1)COC(=O)c1ccccc1 [Neopentyl glycol dibenzoate] | 
 |  | 195.5 Å² |  | COC(=O)C1=C(C)NC(C)=C(C(=O)OCC(C)C)C1c1ccccc1[N+](=O)[O-] (centres undefined) [Nisoldipine] | 
155.8 Å² | 156.2 Å² |  |  | CN1Cc2c(N)cccc2C(c2ccccc2)C1 (centres undefined) [Nomifensine] | 
 |  |  | 140.7 Å² | O=C(O)CCCCCCCC(=O)O [Nonanedioic acid] | 
 |  |  | 146.2 Å² | CCCCCCCCC(=O)O [Nonanoic acid] | 
 |  |  | 167.5 Å² | CC(Cc1ccc(O)c(O)c1)C(C)Cc1ccc(O)c(O)c1 (centres undefined) [Nordihydroguaiaretic acid] | 
 | 178.1 Å² |  |  | C#C[C@]1(O)CC[C@H]2[C@@H]3CCC4=CC(=O)CC[C@@H]4[C@H]3CC[C@@]21C [Norethindrone] | 
 |  |  | 189.8 Å² | CCCCCCCCCCCCCCCCCCOS(=O)(=O)O [Octadecyl sulfate sodium salt] | 
 |  | 184.1 Å² |  | CCCCC(CC)COC(=O)C=Cc1ccc(OC)cc1 (centres undefined) [Octinoxate] | 
186.3 Å² |  |  | 190 Å² | CC(C)(C)CC(C)(C)c1ccc(O)c(-n2nc3ccccc3n2)c1 [Octrizole] | 
 |  | 181.2 Å² | 180.1 Å² | CCCCCCCCO[C@@H]1O[C@H](CO)[C@@H](O)[C@H](O)[C@H]1O [Octyl beta-D-glucopyranoside] | 
 | 222.5 Å² | 219.1 Å² |  | CCCCCCCCCCOC(=O)c1ccccc1C(=O)OCCCCCCCC [Octyl decyl phthalate] | 
 |  |  | 171.5 Å² | CCCCCCCCOC(=O)c1cc(O)c(O)c(O)c1 [Octyl gallate] | 
 |  |  | 162.2 Å² | CCCCCCCCOC(=O)c1ccccc1O [Octyl salicylate] | 
 |  |  | 169.1 Å² | CCCCCCCCOC(=O)c1ccc(O)cc1 [Octylparaben] | 
 |  |  | 161.2 Å² | Cc1c(C(=O)NCCO)[n+]([O-])c2ccccc2[n+]1[O-] [Olaquindox] | 
153.9 Å² | 154.8 Å² | 162.4 Å² |  | NC(=O)N1c2ccccc2CC(=O)c2ccccc21 [Oxcarbazepine] | 
179 Å² | 178.2 Å² | 191.4 Å² | 177 Å² | COC(=O)Nc1nc2cc(S(=O)c3ccccc3)ccc2[nH]1 (centres undefined) [Oxfendazole] | 
 | 171.5 Å² | 189.4 Å² |  | CC(C)(C)[C@H](O)[C@H](Cc1ccc(Cl)cc1)n1cncn1 [Paclobutrazol] | 
185.5 Å² | 185.2 Å² | 185.5 Å² | 187 Å² | COc1ccnc(CS(=O)c2nc3cc(OC(F)F)ccc3[nH]2)c1OC (centres undefined) [Pantoprazole sodium] | 
149.3 Å² | 149.6 Å² |  |  | CCOC(=O)c1ccc(N(C)C)cc1 [Parbenate] | 

Reference: the supplement of paper PMC12317010
